Experimental data published in patent US20250127162A1, “METHODS AND COMPOSITIONS FOR CONTROLLING PESTS IN RICE” (Globachem NV, priority 2022, published 2025).

System: Chilo suppressalis
Experiment: Rice field trials, control of Chilo suppressalis (Example 1, Trials 1-2, Spain)
Assay type: in vivo
Settings: applications AB
Method: All applications were made with an EC formulation containing 650 g/L of pelargonic acid (e.g., 685 g/L of 95% purity pelargonic acid), an anionic emulsifier and a branched fatty acid ester solvent.
Trials 1˜4 assessing the use of pelargonic acid for controlling Chilo suppressalis in rice were conducted in Spain and Thailand.
Application A was made to the crops at the beginning of infestations; for these trials, Stage BBCH 59; Application B was made 14 days after Application A.
Trial 1 was conducted in Spain using a water volume of 300 L/ha of water per application unless otherwise indicated. Pest Incidence/Number of Insects (PESINC) and Pest Severity (PESSEV) as a Percent of Untreated Check (% UNCK) as well as Phytotoxicity were assessed at various treatment evaluation intervals.
Trial 2 was conducted in Spain using a water volume of 300 L/ha of water per application unless otherwise indicated. Pest Incidence/Number of Insects (PESINC) and Pest Severity (PESSEV) as a Percent of Untreated Check (% UNCK) as well as Phytotoxicity were assessed at various treatment evaluation intervals.

[1] = Trial 1, 14 DAB, water volume 300 L/ha, rate in treatment name
[2] = Trial 1, 27 DAB, water volume 150 L/ha
[3] = Trial 1, 27 DAB, water volume 300 L/ha, rate in treatment name, listed as PA 585 g/ha
[4] = Trial 1, 27 DAB, water volume 300 L/ha, rate in treatment name, listed as PA 975 g/ha
[5] = Trial 1, 27 DAB, water volume 300 L/ha, rate in treatment name, listed as PA 1300 g/ha
[6] = Trial 1, 27 DAB, water volume 300 L/ha, rate in treatment name, listed as PA 2600 g/ha
[7] = Trial 1, 40 DAB, water volume 150 L/ha
[8] = Trial 1, 40 DAB, water volume 300 L/ha, rate in treatment name, listed as PA 585 g/ha
[9] = Trial 1, 40 DAB, water volume 300 L/ha, rate in treatment name, listed as PA 975 g/ha
[10] = Trial 1, 40 DAB, water volume 300 L/ha, rate in treatment name, listed as PA 1300 g/ha
[11] = Trial 1, 40 DAB, water volume 300 L/ha, rate in treatment name, listed as PA 2600 g/ha

SMILES: CCCCCCCCC(=O)O [PA 650 g/ha, pelargonic acid]
- PESINC (Pest Incidence/Number of Insects) % UNCK (% efficacy) [1]: 75 % UNCK
- PESSEV (Pest Severity) % UNCK [1]: 75 % UNCK
- PESINC (Pest Incidence/Number of Insects) % UNCK (% efficacy) [2]: 42.08 % UNCK
- PESSEV (Pest Severity) % UNCK [2]: 42.08 % UNCK
- PESINC (Pest Incidence/Number of Insects) % UNCK (% efficacy) [3]: 30.83 % UNCK
- PESSEV (Pest Severity) % UNCK [3]: 30.83 % UNCK
- PESINC (Pest Incidence/Number of Insects) % UNCK (% efficacy) [4]: 42.08 % UNCK
- PESSEV (Pest Severity) % UNCK [4]: 42.08 % UNCK
- PESINC (Pest Incidence/Number of Insects) % UNCK (% efficacy) [5]: 46.25 % UNCK
- PESSEV (Pest Severity) % UNCK [5]: 50 % UNCK
- PESINC (Pest Incidence/Number of Insects) % UNCK (% efficacy) [6]: 59.58 % UNCK
- PESSEV (Pest Severity) % UNCK [6]: 59.58 % UNCK
- PESINC (Pest Incidence/Number of Insects) % UNCK (% efficacy) [7]: 43.75 % UNCK
- PESSEV (Pest Severity) % UNCK [7]: 43.75 % UNCK
- PESINC (Pest Incidence/Number of Insects) % UNCK (% efficacy) [8]: 27.71 % UNCK
- PESSEV (Pest Severity) % UNCK [8]: 29.21 % UNCK
- PESINC (Pest Incidence/Number of Insects) % UNCK (% efficacy) [9]: 46.88 % UNCK
- PESSEV (Pest Severity) % UNCK [9]: 46.88 % UNCK
- PESINC (Pest Incidence/Number of Insects) % UNCK (% efficacy) [10]: 47.5 % UNCK
- PESSEV (Pest Severity) % UNCK [10]: 47.5 % UNCK
- PESINC (Pest Incidence/Number of Insects) % UNCK (% efficacy) [11]: 63.13 % UNCK
- PESSEV (Pest Severity) % UNCK [11]: 63.13 % UNCK
- PESSEV (Pest Severity) % UNCK (Trial 2, 14 DAB, water volume 150 L/ha): 100 % UNCK
- PESSEV (Pest Severity) % UNCK (Trial 2, 14 DAB, water volume 300 L/ha, rate in treatment name): 100 % UNCK
- PESINC (Pest Incidence/Number of Insects) % UNCK (Trial 2, 15 DAB, water volume 150 L/ha): 100 % UNCK
- PESINC (Pest Incidence/Number of Insects) % UNCK (Trial 2, 15 DAB, water volume 300 L/ha, rate in treatment name): 100 % UNCK
- PESSEV (Pest Severity) % UNCK (Trial 2, 27 DAB, water volume 150 L/ha): 45.31 % UNCK
- PESSEV (Pest Severity) % UNCK (Trial 2, 27 DAB, water volume 300 L/ha, rate in treatment name, listed as PA 585 g/ha): 55.21 % UNCK
- PESSEV (Pest Severity) % UNCK (Trial 2, 27 DAB, water volume 300 L/ha, rate in treatment name, listed as PA 975 g/ha): 57.29 % UNCK
- PESSEV (Pest Severity) % UNCK (Trial 2, 27 DAB, water volume 300 L/ha, rate in treatment name, listed as PA 1300 g/ha): 69.27 % UNCK
- PESSEV (Pest Severity) % UNCK (Trial 2, 27 DAB, water volume 300 L/ha, rate in treatment name, listed as PA 2600 g/ha): 77.6 % UNCK
- PESINC (Pest Incidence/Number of Insects) % UNCK (Trial 2, 28 DAB, water volume 150 L/ha): 40 % UNCK
- PESINC (Pest Incidence/Number of Insects) % UNCK (Trial 2, 28 DAB, water volume 300 L/ha, rate in treatment name, listed as PA 585 g/ha): 45 % UNCK
- PESINC (Pest Incidence/Number of Insects) % UNCK (Trial 2, 28 DAB, water volume 300 L/ha, rate in treatment name, listed as PA 975 g/ha): 45 % UNCK
- PESINC (Pest Incidence/Number of Insects) % UNCK (Trial 2, 28 DAB, water volume 300 L/ha, rate in treatment name, listed as PA 1300 g/ha): 57.5 % UNCK
- PESINC (Pest Incidence/Number of Insects) % UNCK (Trial 2, 28 DAB, water volume 300 L/ha, rate in treatment name, listed as PA 2600 g/ha): 74.17 % UNCK
- PESSEV (Pest Severity) % UNCK (Trial 2, 40 DAB, water volume 150 L/ha): 57.29 % UNCK
- PESSEV (Pest Severity) % UNCK (Trial 2, 40 DAB, water volume 300 L/ha, rate in treatment name, listed as PA 585 g/ha): 62.5 % UNCK
- PESSEV (Pest Severity) % UNCK (Trial 2, 40 DAB, water volume 300 L/ha, rate in treatment name, listed as PA 975 g/ha): 68.75 % UNCK
- PESSEV (Pest Severity) % UNCK (Trial 2, 40 DAB, water volume 300 L/ha, rate in treatment name, listed as PA 1300 g/ha): 68.75 % UNCK
- PESSEV (Pest Severity) % UNCK (Trial 2, 40 DAB, water volume 300 L/ha, rate in treatment name, listed as PA 2600 g/ha): 79.38 % UNCK
- PESINC (Pest Incidence/Number of Insects) % UNCK (Trial 2, 41 DAB, water volume 150 L/ha): 39.29 % UNCK
- PESINC (Pest Incidence/Number of Insects) % UNCK (Trial 2, 41 DAB, water volume 300 L/ha, rate in treatment name, listed as PA 585 g/ha): 52.86 % UNCK
- PESINC (Pest Incidence/Number of Insects) % UNCK (Trial 2, 41 DAB, water volume 300 L/ha, rate in treatment name, listed as PA 975 g/ha): 52.86 % UNCK
- PESINC (Pest Incidence/Number of Insects) % UNCK (Trial 2, 41 DAB, water volume 300 L/ha, rate in treatment name, listed as PA 1300 g/ha): 57.86 % UNCK
- PESINC (Pest Incidence/Number of Insects) % UNCK (Trial 2, 41 DAB, water volume 300 L/ha, rate in treatment name, listed as PA 2600 g/ha): 67.86 % UNCK
